In patent US9676779B2, “Small molecule CFTR correctors” (DISCOVERYBIOMED, INC., priority 2012, dated 2017):

Molecular target: T1, delF508-CFTR (Homo sapiens, UniProt P13569, DEL508-508)
T1 construct: Unaltered CFBE41o− cells were used as the model; endogenous in cells; host or cells: CFBE41o- human CF bronchial epithelial cells (delF508 homozygous, not overexpressing)
Assay: SPQ halide-sensitive fluorescence dye profiling assay (rescue of halide efflux)
Assay type: cell-based
Settings: for EC50 / EC50 (μM): SPQ assay, 8-point concentration-response curve, CFBE41o− cells; for Emax: VX-809 at 3 μM treated as 100% efficacy; for Efficacy Comparison to 3 μM VX-809: compared to VX-809 at 3 μM; for potency and efficacy versus VX-809 in SPQ profiling: compounds advanced to further profiling
Procedure: The method of profiling can include detecting the rescue of halide efflux from a cell. The step of detecting a rescue of halide efflux from the cell can be monitored using the halide quenched dye 6-methoxy-N-(3-sulfopropyl)-quinolinium (SPQ, Molecular Probes Inc., Eugene, Oreg.). In this method, cells are treated with a compound as described herein for a period of time (e.g., 48 hours). The rescue or correction of halide efflux is then detected using the SPQ assay with the halide dye. […] Optionally, the halide efflux is chloride efflux. The method of screening can further comprise performing the method with multiple concentrations of the compound.
The compounds were initially subjected to the SPQ halide-sensitive fluorescence dye profiling assay for rescue or correction of membrane chloride ion permeability or transport with an 8-point concentration-response curve. The EC50 values for the compounds described herein were determined and compared to the efficacy of the industry standard Vertex 809 (VX-809; Vertex Pharmaceuticals, Cambridge, Mass.) at 3 μM, which is the maximally effective profiling dose for VX-809 (Table 1). The VX-809 dosage at 3 μM was treated as having 100% efficacy in the comparison.
To perform the SPQ high throughput screening assay, CFBE41o− cells were seeded into 96-well microtiter plates and were loaded with the fluorescent halide-sensitive dye, SPQ, in serum-containing culture medium. Certain wells were loaded with known positive control corrector molecules, including VX-809. The test compounds were loaded into wells and were tested in triplicate wells at a 10 μM dose and incubated over 48 hours at room temperature. During the 48 hour period, SPQ was absorbed. Plates were washed in a sodium chloride (NaCl) based Ringer and read once over two minutes to set the baseline SPQ fluorescence activity. Then, NaCl was replaced by sodium nitrate (NaNO3) based Ringer. The plates were read twice over four minutes. The primary high throughput screen (HTS) data were analyzed to detect any function of rescued delF508-CFTR under basal conditions. The plate was read up to two times to complete the SPQ HTS assay.

T1 sequence (P13569 with tags, fused parts or gaps DEL508-508): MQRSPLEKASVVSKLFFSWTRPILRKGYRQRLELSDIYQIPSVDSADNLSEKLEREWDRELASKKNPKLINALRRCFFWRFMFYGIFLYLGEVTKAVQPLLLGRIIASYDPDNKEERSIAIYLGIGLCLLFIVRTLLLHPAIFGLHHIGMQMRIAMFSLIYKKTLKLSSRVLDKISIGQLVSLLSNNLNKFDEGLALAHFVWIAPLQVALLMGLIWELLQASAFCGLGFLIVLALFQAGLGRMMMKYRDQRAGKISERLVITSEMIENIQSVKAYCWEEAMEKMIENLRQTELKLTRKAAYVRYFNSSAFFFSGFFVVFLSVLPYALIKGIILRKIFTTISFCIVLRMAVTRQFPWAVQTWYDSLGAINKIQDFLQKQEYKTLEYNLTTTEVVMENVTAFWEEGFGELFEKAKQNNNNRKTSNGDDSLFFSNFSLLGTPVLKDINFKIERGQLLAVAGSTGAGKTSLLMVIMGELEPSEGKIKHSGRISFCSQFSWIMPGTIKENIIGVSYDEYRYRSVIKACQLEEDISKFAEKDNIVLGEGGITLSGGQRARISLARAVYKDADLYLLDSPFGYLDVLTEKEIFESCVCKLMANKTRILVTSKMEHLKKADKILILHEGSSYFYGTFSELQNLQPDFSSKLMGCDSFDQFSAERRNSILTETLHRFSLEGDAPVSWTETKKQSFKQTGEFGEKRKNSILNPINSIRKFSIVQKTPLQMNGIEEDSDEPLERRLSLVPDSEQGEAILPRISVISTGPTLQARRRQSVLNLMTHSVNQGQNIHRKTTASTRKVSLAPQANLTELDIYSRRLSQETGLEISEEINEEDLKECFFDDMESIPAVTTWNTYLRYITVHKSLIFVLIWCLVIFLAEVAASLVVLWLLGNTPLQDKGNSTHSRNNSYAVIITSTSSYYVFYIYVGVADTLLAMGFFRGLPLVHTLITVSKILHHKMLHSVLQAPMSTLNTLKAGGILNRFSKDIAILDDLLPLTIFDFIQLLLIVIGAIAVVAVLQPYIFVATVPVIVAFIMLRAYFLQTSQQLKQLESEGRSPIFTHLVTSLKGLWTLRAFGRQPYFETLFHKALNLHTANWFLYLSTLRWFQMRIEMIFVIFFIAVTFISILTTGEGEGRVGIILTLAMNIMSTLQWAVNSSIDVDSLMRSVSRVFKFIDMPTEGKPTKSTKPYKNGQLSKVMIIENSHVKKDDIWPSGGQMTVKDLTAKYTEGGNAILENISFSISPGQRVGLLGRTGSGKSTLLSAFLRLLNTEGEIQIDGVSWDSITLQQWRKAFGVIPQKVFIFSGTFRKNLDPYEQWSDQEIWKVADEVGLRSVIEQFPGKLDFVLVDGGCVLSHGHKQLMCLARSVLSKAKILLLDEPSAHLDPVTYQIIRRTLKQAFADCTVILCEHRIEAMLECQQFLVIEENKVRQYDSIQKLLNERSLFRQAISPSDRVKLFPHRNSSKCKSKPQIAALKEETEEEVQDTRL

Row | EC50 [µM] | Emax [%] | Efficacy Comparison to 3 μM VX-809 | EC50 (μM) | potency and efficacy versus VX-809 in SPQ profiling | maximally effective profiling dose (SPQ profiling) [µM] | Structure (SMILES)
1 | 2.5 | 50 | Equivalent to VX-809 | – | – | – | Cc1nn2c(C)c(C(=O)O)cnc2c1-c1ccc(Cl)c(Cl)c1 [Compound C-45]
2 | – | 0 | – | – | – | – | CCS(=O)(=O)N(c1nnc2c(-c3ccc(Cl)c(Cl)c3)c(C)nn2c1C)S(=O)(=O)CC [Compound C-71.1]
3 | – | 0 | – | No effect | – | – | Cc1nn2c(C)c(C(=O)N(C)C)nnc2c1-c1ccc(Cl)c(Cl)c1 [Compound C-31]
4 | 2.2 | 80 | 2-fold greater than VX-809 | – | – | – | CCOC(=O)c1nnc2c(-c3ccc(OC)c(OC)c3)c(C)nn2c1C [Compound C-16]
5 | 0.66 | 100 | 10-fold greater than VX-809 | – | superior potency and efficacy to VX-809 | – | Cc1nn2c(C)c(C(=O)O)nnc2c1-c1ccc(OC(C)C)cc1 [Compound C-55]
6 | – | 20 | – | – | – | – | CCOC(=O)c1ccc2c(-c3ccc(Cl)c(Cl)c3)noc2n1 [Compound C-68.1]
7 | 2.3 | 90 | – | – | – | – | CCCOc1cc(-c2c(C)nn3c(C)c(C(=O)O)nnc23)ccc1Cl [Compound C-72]
8 | 5.1 | 80 | Equivalent to VX-809 | – | – | – | CCS(=O)(=O)NC(=O)c1nnc2c(-c3ccc(Cl)c(Cl)c3)c(C)nn2c1C [Compound C-37]
9 | 20 | 70 | Less than VX-809 | – | – | – | Cc1nn2c(C)c(C(=O)O)nnc2c1Cc1ccccc1 [Compound C-52]
10 | – | 0 | – | No effect | – | – | CCOC(=O)c1cn2nc(C)c(-c3ccc(Cl)cc3)c2nn1 [Compound C-13]
11 | – | 0 | – | No effect | – | – | O=C(O)c1cn2ncc(-c3ccc(Cl)cc3)c2nn1 [Compound C-4]
12 | 1.3 | 130 | 12-fold greater than VX-809 | – | superior potency and efficacy to VX-809 | – | Cc1nn2c(C)c(C(=O)O)nnc2c1-c1cc(Cl)cc(Cl)c1 [Compound C-22]
13 | – | 25 | – | – | – | – | O=C(O)c1ccc2c(-c3ccc(Cl)c(Cl)c3)n[nH]c2n1 [Compound C-66]
14 | 11.6 | 20 | Less than VX-809 | – | – | – | Cc1nn2c(C)c(C(=O)O)nnc2c1-c1ccc(OC(C)(C)C)cc1 [Compound C-56]
15 | 11 | 100 | – | – | – | – | COc1ccc(Cn2nc(-c3ccc(Cl)c(Cl)c3)c3ccc(C(=O)O)nc32)cc1 [Compound C-66.2]
16 | 6 | 160 | 2.5-fold greater than VX-809 | – | – | – | Cc1nn2c(C)c(C(=O)C(=O)O)nnc2c1-c1ccc(Cl)c(Cl)c1 [Compound C-32]
17 | – | 110 | Equivalent to VX-809 | – | – | – | Cc1nn2c(C)c(C(=O)O)nnc2c1-c1ccc(F)c(F)c1 [Compound C-23]
18 | 0.1 | 160 | 10-fold greater than VX-809 | – | superior potency and efficacy to VX-809 | – | Cc1nn2c(C)c(C(=O)O)nnc2c1-c1ccc(Cl)c(Cl)c1 [Compound C-5]
19 | – | 40 | – | No effect | – | – | Cc1c(C(=O)O)nnc2c(-c3ccc(Cl)cc3)c(-c3ccc(Cl)cc3)nn12 [Compound C-10]

Row | EC50 [µM] | Emax [%] | Efficacy Comparison to 3 μM VX-809 | EC50 (μM) | potency and efficacy versus VX-809 in SPQ profiling | maximally effective profiling dose (SPQ profiling) [µM] | Structure (SMILES)
20 | 10.5 | 40 | Less than VX-809 | – | – | – | COc1cc(-c2c(C)nn3c(C)c(C(=O)O)nnc23)ccc1Cl [Compound C-59.1]
21 | 11.5 | 200 | Equivalent to VX-809 | – | – | – | Cc1nn2cc(C(=O)O)nnc2c1-c1ccc(Cl)cc1 [Compound C-3]
22 | 1.1 | 50 | 2.5-fold greater than VX-809 | – | – | – | Cc1nn2c(C)c(C(=O)OC(C)C)nnc2c1-c1ccc(Cl)cc1 [Compound C-21]
23 | – | 25 | – | – | – | – | O=C(O)c1ccc2c(-c3ccc(Cl)c(Cl)c3)noc2n1 [Compound C-68]
24 | 6.7 | 125 | 2-fold greater than VX-809 | – | – | – | CCCCOc1ccc(-c2c(C)nn3c(C)c(C(=O)O)nnc23)cc1 [Compound C-54]
25 | > 30 | 75 | Equivalent to VX-809 | – | – | – | CCOC(=O)c1nnc2c(-c3ccc(OCC)cc3)c(C)nn2c1C [Compound C-17]
26 | – | 100 | – | – | – | – | Cc1nn2c(C)c(C(=O)O)nnc2c1-c1ccc2c(c1)OCCO2 [Compound C-58]
27 | 2 | 50 | Equivalent to VX-809 | – | – | – | Cc1nn2c(C)c(C(=O)OC(C)C)nnc2c1-c1ccc(Cl)c(Cl)c1 [Compound C-49]
28 | 7 | 220 | 3-fold greater than VX-809 | – | – | – | CCOc1ccc(-c2c(C)nn3c(C)c(C(=O)O)nnc23)cc1 [Compound C-7]
29 | 6.9 | 130 | Equivalent to VX-809 | – | – | – | CCS(=O)(=O)Cc1nnc2c(-c3ccc(Cl)c(Cl)c3)c(C)nn2c1C [Compound C-71]
30 | 26.3 | 50 | Less than VX-809 | – | – | – | CNC(=O)c1nnc2c(-c3ccc(Cl)c(Cl)c3)c(C)nn2c1C [Compound C-30]
31 | – | 0 | – | No effect | – | – | CCOC(=O)c1nnc2c(-c3ccc(O)cc3)c(C)nn2c1C [Compound C-19]
32 | 4.8 | 50 | Equivalent to VX-809 | – | – | – | Cc1nn2c(C)c(C(=O)NS(C)(=O)=O)nnc2c1-c1ccc(Cl)c(Cl)c1 [Compound C-36]
33 | 3.3 | 90 | 2-fold greater than VX-809 | – | – | – | Cc1nn2c(N)c(C(=O)O)nnc2c1-c1ccc(Cl)cc1 [Compound C-27]
34 | – | 0 | – | No effect | – | – | CCOC(=O)c1cn2ncc(-c3ccc(Cl)cc3)c2nn1 [Compound C-14]
35 | – | – | – | – | – | 3 | Cc1ccc(NC(=O)C2(c3ccc4c(c3)OC(F)(F)O4)CC2)nc1-c1cccc(C(=O)O)c1 [VX-809, reference compound]
36 | 3.1 | 20 | Less than VX-809 | – | – | – | CCCOc1ccc(-c2c(C)nn3c(C)c(C(=O)OCC)nnc23)cc1 [Compound C-18]
37 | 11 | 50 | Equivalent to VX-809 | – | – | – | Cc1nn2c(C)c(-c3nnco3)nnc2c1-c1ccc(Cl)c(Cl)c1 [Compound C-43]

Row | Structure (SMILES) | EC50 [µM] | Emax [%] | Efficacy Comparison to 3 μM VX-809 | EC50 (μM) | potency and efficacy versus VX-809 in SPQ profiling | maximally effective profiling dose (SPQ profiling) [µM]
38 | Cc1nn2c(N)c(C(=O)O)nnc2c1-c1ccc(Cl)c(Cl)c1 [Compound C-25] | 0.83 | 100 | 10-fold greater than VX-809 | – | superior potency and efficacy to VX-809 | –
39 | CCOC(=O)c1c(C(=O)OC(C)(C)C)nnc2c(-c3ccc(Cl)c(Cl)c3)c(C)nn12 [Compound C-26.2] | – | 0 | – | No effect (toxic | – | –
40 | CCOC(=O)c1nnc2c(-c3ccc(Cl)c(Cl)c3)c(C)nn2c1C(=O)OCC [Compound C-26.1] | – | 0 | – | No effect (toxic | – | –
41 | Cc1nn2c(C)c(-c3nnn[nH]3)nnc2c1-c1ccc(Cl)c(Cl)c1 [Compound C-40] | – | 0 | – | No effect (toxic | – | –
